Results from US11076594B2, “Pyrazolone compound or salt thereof, preparation method therefor, herbicide composition and use thereof” (QINGDAO KINGAGROOT CHEMICAL COMPOUNDS CO., LTD., priority 2015, dated 2021).

What was measured:
Type in all cases: in vivo
rice (japonica rice) = assay: transplanted rice safety evaluation; conditions: 125 g/ha ai; treated 5 days after transplantation; 21 days after treatment
Protocol: The activity level standard of harmful plant destruction (i.e. growth control rate) is as follows: In addition, the rice field soil that loaded into the 1/1,000,000 ha pot was leveled to keep water storage at 3-4 cm depth. The 3 leaf stage rice (japonica rice) was transplanted at 3 cm of transplanting depth the next day. The compound of the present invention was treated by the same way after 5 days of transplantation. The fertility condition of echinochloa, scirpus juncoides, bidens tripartite and sagittaria trifolia 14 days after the treatment of the compound of the invention and the fertility condition of rice 21 days after the treatment of the compound of the invention respectively with the naked eye.

foxtail = assay: weed control effect in post-emergence stage (Table 1); parameters: key: Level 10: completely dead; Level 9: above 95% growth control rate; Level 8: above 90% growth control rate; Level 7: above 80% growth control rate; Level 6: above 70% growth control rate; Level 5: above 60% growth control rate; Level 4: above 50% growth control rate; Level 3: above 20% growth control rate; Level 2: 5%-20% growth control rate; Level 1: below 5% growth control rate; conditions: post-emergence spray at 4-5 leaf stage, 250 g/ha active ingredient with 450 kg/ha water, rated after 3 weeks in greenhouse
How it was run: (§1)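 Weed and crop seeds sown in soil-filled pots under 0.5-2 cm soil, greenhouse-grown, then sprayed at 4-5 leaf stage (2-3 weeks after sowing) with compound in acetone/Tween 80/water. Fresh weight growth control rate assessed after 3 weeks in greenhouse.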

rorippa indica = assay: as above; parameters: key: Level 10: completely dead; Level 9: above 95% growth control rate; Level 8: above 90% growth control rate; Level 7: above 80% growth control rate; Level 6: above 70% growth control rate; Level 5: above 60% growth control rate; Level 4: above 50% growth control rate; Level 3: above 20% growth control rate; Level 2: 5%-20% growth control rate; Level 1: below 5% growth control rate; conditions: post-emergence spray at 4-5 leaf stage, 250 g/ha active ingredient with 450 kg/ha water, rated after 3 weeks in greenhouse
How it was run: as §1

crab grass = assay: as above; parameters: key: Level 10: completely dead; Level 9: above 95% growth control rate; Level 8: above 90% growth control rate; Level 7: above 80% growth control rate; Level 6: above 70% growth control rate; Level 5: above 60% growth control rate; Level 4: above 50% growth control rate; Level 3: above 20% growth control rate; Level 2: 5%-20% growth control rate; Level 1: below 5% growth control rate; conditions: post-emergence spray at 4-5 leaf stage, 250 g/ha active ingredient with 450 kg/ha water, rated after 3 weeks in greenhouse
How it was run: as §1

bidens bipinnata = assay: as above; parameters: key: Level 10: completely dead; Level 9: above 95% growth control rate; Level 8: above 90% growth control rate; Level 7: above 80% growth control rate; Level 6: above 70% growth control rate; Level 5: above 60% growth control rate; Level 4: above 50% growth control rate; Level 3: above 20% growth control rate; Level 2: 5%-20% growth control rate; Level 1: below 5% growth control rate; conditions: post-emergence spray at 4-5 leaf stage, 250 g/ha active ingredient with 450 kg/ha water, rated after 3 weeks in greenhouse
How it was run: as §1

echinochloa [1] = assay: as above; parameters: key: Level 10: completely dead; Level 9: above 95% growth control rate; Level 8: above 90% growth control rate; Level 7: above 80% growth control rate; Level 6: above 70% growth control rate; Level 5: above 60% growth control rate; Level 4: above 50% growth control rate; Level 3: above 20% growth control rate; Level 2: 5%-20% growth control rate; Level 1: below 5% growth control rate; conditions: post-emergence spray at 4-5 leaf stage, 250 g/ha active ingredient with 450 kg/ha water, rated after 3 weeks in greenhouse
How it was run: as §1

Indian mallow = assay: as above; parameters: key: Level 10: completely dead; Level 9: above 95% growth control rate; Level 8: above 90% growth control rate; Level 7: above 80% growth control rate; Level 6: above 70% growth control rate; Level 5: above 60% growth control rate; Level 4: above 50% growth control rate; Level 3: above 20% growth control rate; Level 2: 5%-20% growth control rate; Level 1: below 5% growth control rate; conditions: post-emergence spray at 4-5 leaf stage, 250 g/ha active ingredient with 450 kg/ha water, rated after 3 weeks in greenhouse
How it was run: as §1

rice = assay: post-emergence stage experiment, crop (Table 1); conditions: post-emergence spray at 4-5 leaf stage, 250 g/ha active ingredient with 450 kg/ha water, rated after 3 weeks in greenhouse
How it was run: as §1

wheat = assay: post-emergence stage experiment, crop (Table 1); conditions: post-emergence spray at 4-5 leaf stage, 250 g/ha active ingredient with 450 kg/ha water, rated after 3 weeks in greenhouse
How it was run: as §1

sagittaria trifolia = assay: weed control effect evaluation in rice field; parameters: key: Level 10: completely dead; Level 9: above 95% growth control rate; Level 8: above 90% growth control rate; Level 7: above 80% growth control rate; Level 6: above 70% growth control rate; Level 5: above 60% growth control rate; Level 4: above 50% growth control rate; Level 3: above 20% growth control rate; Level 2: 5%-20% growth control rate; Level 1: below 5% growth control rate; conditions: 125 g/ha ai; rice field pot; 14 days after treatment; resistant to pyrazosulfuron-ethyl
Text: (§2) The activity level standard of harmful plant destruction (i.e. growth control rate) is as follows: Rice field soil was loaded into a 1/1,000,000 ha pot. The seeds of echinochloa, scirpus juncoides, bidens tripartite and sagittaria trifolia were sowed and gently covered with soil, then left to stand still in greenhouse in the state of 0.5-1 cm of water storage. The tuber of sagittaria trifolia was planted in the next day or 2 days later. It was kept at 3-4 cm of water storage thereafter. The weeds were treated by dripping the WP or SC water diluents prepared according to the common preparation method of the compounds of the present invention with pipette homogeneously to achieve specified effective amount when echinochloa, scirpus juncoides and bidens tripartite reached 0.5 leaf stage and sagittaria trifolia reached the time point of primary leaf stage. The fertility condition of echinochloa, scirpus juncoides, bidens tripartite and sagittaria trifolia 14 days after the treatment of the compound of the invention and the fertility condition of rice 21 days after the treatment of the compound of the invention respectively with the naked eye.

scirpus juncoides = assay: weed control effect evaluation in rice field; parameters: key: Level 10: completely dead; Level 9: above 95% growth control rate; Level 8: above 90% growth control rate; Level 7: above 80% growth control rate; Level 6: above 70% growth control rate; Level 5: above 60% growth control rate; Level 4: above 50% growth control rate; Level 3: above 20% growth control rate; Level 2: 5%-20% growth control rate; Level 1: below 5% growth control rate; conditions: 125 g/ha ai; rice field pot; 14 days after treatment; resistant to pyrazosulfuron-ethyl
Text: as §2

bidens tripartite = assay: weed control effect evaluation in rice field; parameters: key: Level 10: completely dead; Level 9: above 95% growth control rate; Level 8: above 90% growth control rate; Level 7: above 80% growth control rate; Level 6: above 70% growth control rate; Level 5: above 60% growth control rate; Level 4: above 50% growth control rate; Level 3: above 20% growth control rate; Level 2: 5%-20% growth control rate; Level 1: below 5% growth control rate; conditions: 125 g/ha ai; rice field pot; 14 days after treatment; resistant to pyrazosulfuron-ethyl
Text: as §2

echinochloa [2] = assay: weed control effect evaluation in rice field; parameters: key: Level 10: completely dead; Level 9: above 95% growth control rate; Level 8: above 90% growth control rate; Level 7: above 80% growth control rate; Level 6: above 70% growth control rate; Level 5: above 60% growth control rate; Level 4: above 50% growth control rate; Level 3: above 20% growth control rate; Level 2: 5%-20% growth control rate; Level 1: below 5% growth control rate; conditions: 125 g/ha ai; rice field pot; 14 days after treatment; resistant to pyrazosulfuron-ethyl
Text: as §2

corn = assay: post-emergence stage experiment, crop (Table 1); conditions: post-emergence spray at 4-5 leaf stage, 250 g/ha active ingredient with 450 kg/ha water, rated after 3 weeks in greenhouse
How it was run: as §1

Structure (SMILES)	Rice (activity level, transplanted rice safety) (rice (japonica rice))	weed control effect, Green foxtail (level) (foxtail)	weed control effect, Rorippa indica (level) (rorippa indica)	weed control effect, Crab grass (level) (crab grass)	weed control effect, Bidens bipinnata (level) (bidens bipinnata)	weed control effect, Echinochloa (level) (echinochloa [1])	weed control effect, Indian mallow (level) (Indian mallow)	effect on crop, Rice (level) (rice)	effect on crop, Wheat (level) (wheat)	Sagittaria trifolia weed control effect (activity level) (sagittaria trifolia)	Scirpus juncoides weed control effect (activity level) (scirpus juncoides)	Bidens tripartite weed control effect (activity level) (bidens tripartite)	Echinochloa weed control effect (activity level) (echinochloa [2])	effect on crop, Corn (level) (corn)
Cc1nn(C)c(O)c1C(=O)c1ccc(C(F)(F)F)c(N)c1Cl [Compound 001]	0	6 (Level 6: above 70% growth control rate)	9 (Level 9: above 95% growth control rate)	1 (Level 1: below 5% growth control rate)	8 (Level 8: above 90% growth control rate)	6 (Level 6: above 70% growth control rate)	9 (Level 9: above 95% growth control rate)	4 (Level 4: above 50% growth control rate)	0	9 (Level 9: above 95% growth control rate)	10	8 (Level 8: above 90% growth control rate)	10	
Cn1nc(C2CC2)c(C(=O)c2ccc(C(F)(F)F)c(N3CCCC3=O)c2Cl)c1O [Compound 025]	0	10	10	6 (Level 6: above 70% growth control rate)	8 (Level 8: above 90% growth control rate)	6 (Level 6: above 70% growth control rate)	10	6 (Level 6: above 70% growth control rate)	3 (Level 3: above 20% growth control rate)	10	10	8 (Level 8: above 90% growth control rate)	9 (Level 9: above 95% growth control rate)	4 (Level 4: above 50% growth control rate)
Cc1nn(C)c(O)c1C(=O)c1ccc(C(F)(F)F)c(N2CCCCCC2=O)c1Cl [Compound 054]	2 (Level 2: 5%-20% growth control rate)	5 (Level 5: above 60% growth control rate)	9 (Level 9: above 95% growth control rate)	1 (Level 1: below 5% growth control rate)	9 (Level 9: above 95% growth control rate)	6 (Level 6: above 70% growth control rate)	9 (Level 9: above 95% growth control rate)	4 (Level 4: above 50% growth control rate)	0	9 (Level 9: above 95% growth control rate)	9 (Level 9: above 95% growth control rate)	9 (Level 9: above 95% growth control rate)	8 (Level 8: above 90% growth control rate)	
Cc1nn(C)c(O)c1C(=O)c1ccc(C(F)(F)F)c(-n2cccn2)c1Cl [Compound 068]	1 (Level 1: below 5% growth control rate)	10	9 (Level 9: above 95% growth control rate)	5 (Level 5: above 60% growth control rate)	10	10	10	5 (Level 5: above 60% growth control rate)	3 (Level 3: above 20% growth control rate)	10	9 (Level 9: above 95% growth control rate)	10	10	
Cc1ccn(-c2c(C(F)(F)F)ccc(C(=O)c3c(C)nn(C)c3O)c2Cl)n1 [Compound 077]	1 (Level 1: below 5% growth control rate)	7 (Level 7: above 80% growth control rate)	10	4 (Level 4: above 50% growth control rate)	9 (Level 9: above 95% growth control rate)	10	10	6 (Level 6: above 70% growth control rate)	0	10	10	9 (Level 9: above 95% growth control rate)	10	
